Assay results as given in ChEMBL document CHEMBL1201862, “PubChem BioAssay data set” (2004).
Where “and” joins values, the source holds several entries; their conditions need not be identical. Identical values can stand only once.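 Five concentrations, 48 hours, 96-well plates. GI50 marks 50% less growth.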 Calls of active or inactive are those of the source. Cut-off read from the data, not from the text of the source: active = GI50 up to about 1.1 µM and inactive = higher.

Key:
Assay in all cases: inhibition of tumour cell growth, NCI panel, 48 h
A498 = system: A498
CCRF-CEM = system: CCRF-CEM
DU-145 = system: DU-145
HCC 2998 = system: HCC 2998
HL-60 = system: HL-60
Hs-578T = system: Hs-578T
LOX IMVI = system: LOX IMVI
MDA-N = system: MDA-N
NCI-H522 = system: NCI-H522
NCI/ADR-RES = system: NCI/ADR-RES
OVCAR-4 = system: OVCAR-4
OVCAR-8 = system: OVCAR-8
RPMI-8226 = system: RPMI-8226
SF-268 = system: SF-268
SF-539 = system: SF-539
SK-OV-3 = system: SK-OV-3
SNB-75 = system: SNB-75
UACC-62 = system: UACC-62
CAKI-1 = system: CAKI-1
HOP-92 = system: HOP-92

SMILES | GI50 (A498) | GI50 (CCRF-CEM) | GI50 (DU-145) | GI50 (HCC 2998) | GI50 (HL-60) | GI50 (Hs-578T) | GI50 (LOX IMVI) | GI50 (MDA-N) | GI50 (NCI-H522) | GI50 (NCI/ADR-RES) | GI50 (OVCAR-4) | GI50 (OVCAR-8) | GI50 (RPMI-8226) | GI50 (SF-268) | GI50 (SF-539) | GI50 (SK-OV-3) | GI50 (SNB-75) | GI50 (UACC-62) | GI50 (CAKI-1) | GI50 (HOP-92)
Nc1nc2cc(CNc3ccc(C(=O)O)cc3)ccc2nc1-c1ccccc1 | > 100 µM (inactive) | > 100 µM (inactive) | 44.6 µM (inactive) | > 100 µM (inactive) | > 100 µM (inactive) | > 100 µM (inactive) | 54.2 µM (inactive) | > 100 µM (inactive) | > 100 µM (inactive) | > 100 µM (inactive) | > 100 µM (inactive) | > 100 µM (inactive) | > 100 µM (inactive) | > 100 µM (inactive) | 74.5 µM (inactive) | > 100 µM (inactive) | 66.5 µM (inactive) | > 10 µM (inactive) |  | 
COC(=O)CC1(CNC(=O)OCc2ccccc2)OCCO1 | > 100 µM (inactive) | > 100 µM (inactive) | > 100 µM (inactive) | > 100 µM (inactive) | > 100 µM (inactive) |  | > 100 µM (inactive) | > 100 µM (inactive) | > 100 µM (inactive) | > 100 µM (inactive) | > 100 µM (inactive) | > 100 µM (inactive) | > 100 µM (inactive) |  | > 100 µM (inactive) | > 100 µM (inactive) | > 100 µM (inactive) | > 100 µM (inactive) | > 100 µM (inactive) | > 100 µM (inactive)
COC(=O)C1=C(C(=O)OC)C(N(C)C)C(C(=O)OC)=C(C(=O)OC)S1 | > 100 µM (inactive) |  | > 100 µM (inactive) | > 100 µM (inactive) |  | > 100 µM (inactive) | > 100 µM (inactive) | > 100 µM (inactive) |  | > 100 µM (inactive) | > 100 µM (inactive) | > 100 µM (inactive) | > 100 µM (inactive) | > 100 µM (inactive) |  | > 100 µM (inactive) | > 100 µM (inactive) | > 100 µM (inactive) | > 100 µM (inactive) | 
CCC(=O)NCCc1c[nH]c2ccc(OC)cc12 | > 100 µM (inactive) | > 100 µM (inactive) | > 100 µM (inactive) | > 100 µM (inactive) |  | > 100 µM (inactive) | > 100 µM (inactive) | > 100 µM (inactive) | > 100 µM (inactive) | > 100 µM (inactive) | > 100 µM (inactive) | > 100 µM (inactive) | > 100 µM (inactive) | > 100 µM (inactive) | > 100 µM (inactive) | > 100 µM (inactive) | > 100 µM (inactive) | > 100 µM (inactive) | > 100 µM (inactive) | > 100 µM (inactive)
N#Cc1c(O)c(/N=N/c2ccccc2F)c(=O)n2c1[nH]c1ccccc12 | 60.5 µM (inactive) | 36.8 µM (inactive) | 42.4 µM (inactive) | 53.6 µM (inactive) | 33 µM (inactive) | 15.4 µM (inactive) | 61.9 µM (inactive) | 22 µM (inactive) | 27.9 µM (inactive) | 50 µM (inactive) | 39.3 µM (inactive) | 39.3 µM (inactive) |  | 32.4 µM (inactive) | > 100 µM (inactive) | 50.5 µM (inactive) | 30.4 µM (inactive) | 20.6 µM (inactive) |  | 15.1 µM (inactive)
CCN(CC)c1ccc(/C=C/C=C2C(=O)NC(=S)NC2=O)cc1 | > 100 µM (inactive) | 2.81 µM (inactive) | 20.9 µM (inactive) | 27.2 µM (inactive) | 2.62 µM (inactive) | 11 µM (inactive) | 13.5 µM (inactive) | 12.4 µM (inactive) |  | 10.4 µM (inactive) | > 100 µM (inactive) | 14.3 µM (inactive) | > 100 µM (inactive) | 22.5 µM (inactive) | 13.9 µM (inactive) | > 100 µM (inactive) | 28.9 µM (inactive) | 15.1 µM (inactive) | > 100 µM (inactive) | 77.8 µM (inactive)
Cc1nn(-c2ccccc2)c(C)c1/C=N/N=C1\SCC(=O)N1c1ccccc1 | 23.6 µM (inactive) | 25 µM (inactive) | 31.8 µM (inactive) | 20.3 µM (inactive) | 30.8 µM (inactive) | 37.2 µM (inactive) | 22.6 µM (inactive) | 20.9 µM (inactive) |  | 18.5 µM (inactive) | 10.6 µM (inactive) | 21.7 µM (inactive) | 13.4 µM (inactive) | 28.4 µM (inactive) | 22.9 µM (inactive) | 29.8 µM (inactive) | 20.4 µM (inactive) | 21.4 µM (inactive) | 19.4 µM (inactive) | 
COc1nc2ncc([C@@H](OC(C)=O)[C@@H](COC(C)=O)OC(C)=O)nc2c(=O)[nH]1 | > 100 µM (inactive) | > 100 µM (inactive) | > 100 µM (inactive) |  | > 100 µM (inactive) | > 100 µM (inactive) | > 100 µM (inactive) | > 100 µM (inactive) |  | > 100 µM (inactive) | > 100 µM (inactive) | > 100 µM (inactive) | > 100 µM (inactive) | > 100 µM (inactive) and 83.4 µM (inactive) | > 100 µM (inactive) | > 100 µM (inactive) |  | > 100 µM (inactive) | > 100 µM (inactive) | 
CCCCc1ccc(N2C(=O)c3cc(C)cnc3S2(=O)=O)cc1 |  |  | > 100 µM (inactive) | > 100 µM (inactive) | > 100 µM (inactive) | 43.1 µM (inactive) | > 100 µM (inactive) | > 100 µM (inactive) | > 100 µM (inactive) | > 100 µM (inactive) | > 100 µM (inactive) | > 100 µM (inactive) | > 100 µM (inactive) | 97.5 µM (inactive) |  | 63.2 µM (inactive) | 59.2 µM (inactive) |  |  | > 100 µM (inactive)
COC(=O)c1c(OC(C)=O)ccc2c1c1c(n2Cc2ccccc2)C(=O)c2ccccc2C1=O | 19.4 µM (inactive) | 36.3 µM (inactive) | 17 µM (inactive) | 16.2 µM (inactive) | 25.8 µM (inactive) | 19.9 µM (inactive) |  | 18.7 µM (inactive) | 19.5 µM (inactive) | 24 µM (inactive) | 21.8 µM (inactive) | 27.7 µM (inactive) | 15.7 µM (inactive) | 26.5 µM (inactive) | 17.9 µM (inactive) | 23.6 µM (inactive) | 22.2 µM (inactive) | 22.5 µM (inactive) | 22 µM (inactive) | 21.4 µM (inactive)
O=C1CCC2(c3ccc(F)cc3)Nc3ncncc3N12 (centres undefined) |  | > 10 µM (inactive) | > 10 µM (inactive) | > 10 µM (inactive) |  | > 10 µM (inactive) | > 10 µM (inactive) | > 10 µM (inactive) | > 10 µM (inactive) | > 10 µM (inactive) | > 10 µM (inactive) | > 10 µM (inactive) |  | > 10 µM (inactive) | > 10 µM (inactive) |  | > 10 µM (inactive) | > 10 µM (inactive) |  | > 10 µM (inactive)
COc1ccc2[nH]c3ccc4cc[n+](CCN5CCC(C6CCN(CC[n+]7ccc8ccc9[nH]c%10ccc(OC)cc%10c9c8c7)CC6)CC5)cc4c3c2c1 | > 16.2 µM (inactive) | 0.274 µM (active) | 21.4 µM (inactive) |  |  | 33 µM (inactive) |  | 2.96 µM (inactive) | 0.875 µM (active) | 19.5 µM (inactive) | 7.29 µM (inactive) | 0.405 µM (active) |  | 1.97 µM (inactive) | 2.65 µM (inactive) | 6.37 µM (inactive) | 14.2 µM (inactive) | 0.938 µM (active) | 1.02 µM (active) | 0.303 µM (active)
CN(C)c1ccc(/N=C2/NC(=N\c3ccccc3)/C(=N/c3ccccc3)S2)cc1 | 87.3 µM (inactive) | 97.5 µM (inactive) | > 100 µM (inactive) | > 100 µM (inactive) | > 100 µM (inactive) | 30.7 µM (inactive) | 37.6 µM (inactive) | > 100 µM (inactive) | 5.64 µM (inactive) | > 100 µM (inactive) | > 100 µM (inactive) | 66.5 µM (inactive) |  | > 100 µM (inactive) | > 100 µM (inactive) | 48.9 µM (inactive) | 27.2 µM (inactive) | 51.2 µM (inactive) | > 100 µM (inactive) | > 100 µM (inactive)
CC1CC/C(=C\c2ccc(F)cc2)C2=C1C(c1ccc(F)cc1)N1C(=O)CSC1=N2 (centres undefined) | 57 µM (inactive) | 41.2 µM (inactive) | > 100 µM (inactive) |  | 4.35 µM (inactive) | > 100 µM (inactive) | 44 µM (inactive) | > 100 µM (inactive) |  | 49.9 µM (inactive) |  | 69.7 µM (inactive) | 15.5 µM (inactive) | > 100 µM (inactive) | > 100 µM (inactive) | > 100 µM (inactive) |  | > 100 µM (inactive) | > 100 µM (inactive) | 
CCOC(=O)C(NC(=O)Nc1ccc(Cl)cc1)(OC)C(F)(F)F (centres undefined) | 14 µM (inactive) |  |  | 7.45 µM (inactive) | 9.68 µM (inactive) | 42.4 µM (inactive) | > 100 µM (inactive) | 3.12 µM (inactive) |  | 4.66 µM (inactive) |  | 49.3 µM (inactive) |  | 27.7 µM (inactive) | 19.7 µM (inactive) | > 100 µM (inactive) | > 100 µM (inactive) |  | 74.3 µM (inactive) | 
Cc1c(O)nc(-n2[nH]c3c(c2=O)CCCC3)[nH]c1=O | > 100 µM (inactive) | > 100 µM (inactive) | > 100 µM (inactive) |  | > 100 µM (inactive) | > 100 µM (inactive) |  | > 100 µM (inactive) | > 100 µM (inactive) | > 100 µM (inactive) | > 100 µM (inactive) | > 100 µM (inactive) | > 100 µM (inactive) | > 100 µM (inactive) |  | > 100 µM (inactive) |  | > 100 µM (inactive) | > 100 µM (inactive) | > 100 µM (inactive)
